Laboratory results: ChEMBL document CHEMBL4261514, “Interaction of indomethacin with calf thymus DNA: a multi-spectroscopic, thermodynamic and molecular modelling approach” (Medchemcomm, 2017)
Activity calls are given as the source filed them. The rule behind the calls is not given here.

Assays:
Format in all cases: nucleic-acid assay
Conditions in all cases: Bos taurus
Calf thymus DNA [1] = assay: Binding affinity to calf thymus DNA at 50 uM in presence of NaCl by fluorescence assay
Calf thymus DNA [2] = assay: Binding affinity to calf thymus DNA assessed as quenching constant at 50 uM at pH 7.2 by spectrofluorophotometric method
Calf thymus DNA [3] = assay: Inhibition of Hoechst 33258 binding to calf thymus DNA up to 70 uM by fluorescence assay
Calf thymus DNA [4] = assay: Binding affinity to calf thymus DNA assessed as conformational change up to 100 uM by circular dichroism spectral analysis
Calf thymus DNA [5] = assay: Inhibition of acridine orange binding to calf thymus DNA up to 80 uM by fluorescence assay
Calf thymus DNA [6] = assay: Binding affinity to calf thymus DNA assessed as melting temperature at 50 uM by UV-visible spectroscopic method (reference value: 66.3 +/- 1 degC)
Calf thymus DNA [7] = assay: Binding affinity to calf thymus DNA assessed as iodide quenching by measuring reduction in Stern-Volmer quenching constant at 50 uM by fluorescence assay relative to control; design: scale not given: the % may be the effect or the level left
Calf thymus DNA [8] = assay: Inhibition of ethidium bromide binding to calf thymus DNA up to 80 uM by fluorescence assay
Calf thymus DNA [9] = assay: Binding affinity to calf thymus DNA by isothermal calorimetric titration method
Calf thymus DNA [10] = assay: Binding affinity to calf thymus DNA assessed as hyperchromic shift at 281 nm at 50 uM by UV-visible spectrophotometric method
Calf thymus DNA [11] = assay: Binding affinity to calf thymus DNA assessed as change in viscosity at compound to DNA ratio of 0.2 to 1 by viscometry
Calf thymus DNA [12] = assay: Binding affinity to calf thymus DNA by UV-visible spectrophotometric method
Calf thymus DNA [13] = assay: Binding affinity to calf thymus DNA assessed as Stern-Volmer quenching constant at 50 uM at pH 7.2 by spectrofluorophotometric method

- Activity (Calf thymus DNA [1]): inactive
- Kq (Calf thymus DNA [2]): 1.1 ×10¹¹ L/mol/s
- inhibition (Calf thymus DNA [3]): Active
- Activity (Calf thymus DNA [4]): inactive
- inhibition (Calf thymus DNA [5]): inactive
- Tm (Calf thymus DNA [6]): 68.2 °C
- Activity (Calf thymus DNA [7]): 19%
- inhibition (Calf thymus DNA [8]): inactive
- K (Calf thymus DNA [9]): 5.5 ×10³ /mol
- Activity (Calf thymus DNA [10]): Active
- Activity (Calf thymus DNA [11]): inactive
- K (Calf thymus DNA [12]): 9.6 ×10³ L/mol
- KSV (Calf thymus DNA [13]): 1.1 ×10³ L/mol
SMILES: COc1ccc2c(c1)c(CC(=O)O)c(C)n2C(=O)c1ccc(Cl)cc1
